Measurements reported in article PMC7892644 (Cancer discovery, 2020).
Read-outs that look alike come from different tables or passages of the source.

Key:
[1] = test system: recombinant SOS1 and recombinant KRAS G12D; assay: AlphaScreen protein-protein interaction assay, SOS1 and KRAS G12D; format: binding; conditions: KRAS-GDP, result in words
[2] = test system: recombinant SOS1 and recombinant KRAS G12C; assay: AlphaScreen protein-protein interaction assay, SOS1 and KRAS G12C; format: binding; conditions: KRAS-GDP, result in words
[3] = test system: panel of 24 cell lines, including 18 KRAS-mutated cell lines; assay: 2D proliferation assays across a panel of 24 cell lines; format: cell-based
[4] = test system: NCI-H520 cells (KRAS wild-type); assay: 3D proliferation assay, NCI-H520; format: cell-based
[5] = test system: KRAS Q61K mutant pancreatic PDX model; assay: KRAS Q61K mutant pancreatic PDX model efficacy; format: in vivo, mice; conditions: BI-3406 50 mg/kg bid, trametinib 0.1 mg/kg bid, 5 days on/2 days off
[6] = test system: pERK levels in isogenic NCI-H23 cell lines; assay: pERK levels in isogenic NCI-H23 cell lines
[7] = test system: primary smooth muscle cells; assay: Proliferation of primary smooth muscle cells; format: cell-based; conditions: read-out: IC50, proliferation
[8] = test system: panel of 24 cell lines, including 18 KRAS-mutated cell lines; assay: 3D proliferation assays across a panel of 24 cell lines; format: cell-based; conditions: for IC50: read-out: IC50, 3D proliferation
[9] = test system: KRAS G12C-mutated MIA PaCa-2 xenografts; conditions: 12 or 50 mg/kg twice daily; p<0.005 vs vehicle control
[10] = test system: A375 cells (KRAS wild-type, BRAF V600E); assay: 3D proliferation assay, A375; format: cell-based
[11] = test system: pERK levels in A375 melanoma cells (KRAS wild-type, BRAF V600E); assay: pERK inhibition in A375 cells; format: cell-based; conditions: A375, 1 hour, 2D
[12] = test system: retinal pigment epithelial cells; assay: Proliferation of retinal pigment epithelial cells; format: cell-based; conditions: Epithelial cell, read-out: IC50, proliferation
[13] = test system: foreskin fibroblasts; assay: cells; conditions: Fibroblast, read-out: IC50, proliferation

Compound: C=CC(=O)N1CCN(c2ncnc3c(F)c(-c4c(O)cccc4F)c(Cl)cc23)CC1 [ARS-1620]
- inhibition of SOS1 interaction with KRAS G12D [1]: no effect
- inhibition of SOS1 interaction with KRAS G12C [2]: able to interfere

Compound: CNCc1ccccc1-c1csc([C@@H](C)Nc2nc(C)nc3cc(OC)c(OC)cc23)c1 [BAY293]
- activity in 2D proliferation assays [3]: no activity

Compound: COc1cc2nc(C)nc(N[C@H](C)c3cc(N)cc(C(F)(F)F)c3)c2cc1O[C@H]1CCOC1 [BI-3406]
- effect on 3D growth [4]: not appreciably affected
- antitumor efficacy [5]: only weak efficacy
- modulation of pERK ([6]; NCI-H23 cells carrying the G12R variant): No modulation
- inhibition of pERK levels ([6]; NCI-H23 cells carrying the Q61H oncogenic variant): weak inhibition
- reduction of pERK levels ([6]; all KRAS variant isogenic NCI-H23 cell lines, independent of zygosity): ~50%
- activity in 2D proliferation assays [3]: no activity
- IC50 [7]: > 5000 nM
- IC50 [8]: 9 to 220 nM
- tumor growth inhibition [9]: prolonged dose-dependent tumor growth inhibition
- effect on 3D growth [10]: not appreciably affected
- pERK modulation [11]: No pERK modulation
- IC50 [12]: > 5000 nM

Compound: CC1(N)CCN(c2cnc(-c3cccc(Cl)c3Cl)c(N)n2)CC1 [SHP099]
- activity in 2D proliferation assays [3]: no activity
- effect in 3D proliferation ([8]; Q61L/H and G12R KRAS mutant tumor cells): no effects were detectable
- IC50 ([8]; KRAS G12C, a subset of G12D cell lines, and one G12S cell line): 167 to 790 nM
- IC50 ([8]; KRAS G13D and G12V cells): 1180 to 4410 nM

Compound: Cc1[nH]c2ccccc2c1CCNCc1ccc(/C=C/C(=O)NO)cc1 [panobinostat]
- effect on 3D growth [4]: responded
- effect on 3D growth [10]: responded

Compound: CC(=O)Nc1cccc(-n2c(=O)n(C3CC3)c(=O)c3c(Nc4ccc(I)cc4F)n(C)c(=O)c(C)c32)c1 [trametinib]
- IC50 [7]: 843 nM
- IC50 [13]: 85 nM
- IC50 [12]: 12 nM
